Legend:
[1] = test system: osteoclast differentiation; experiment: Osteoclast differentiation-inducing test by cocultivation of mouse bone marrow cells and osteoblast-like cell line KS483 (TRAP activity); type: cell-based; conditions: 6 days coculture with 1,25(OH)2VD3, FIG. 2
Experimental: Mouse osteoblast-like cell line KS483 ([…] T. et al., Bone, 19, 429-436 (1996), “Subcloning of Three Osteoblastic Cell with Distinct Differentiation Phenotypes from the Mouse Osteoblastic Cell line KS-4”) was cultured in an α-MEM medium containing a 10% fetal calf serum (purchased from GIBCO BRL) until about 90% confluent. The cells were seeded into wells, each containing the same medium containing a 10% fetal calf serum, in a 48 well flat-bottom plate at a density of 2.0×10^3 per well. […] At the same time, the TRAP activity was evaluated by the measurement of enzyme activity using p-nitrophenylphosphate (SIGMA104 phosphatase substrate; SIGMA; hereinafter referred to as “PNP”). […] After stirring, 50 μl of 0.5 N NaOH was further added, and 100 μl of the reaction solution in each well was dispensed in a 96 well flat-bottom plate, and absorbance at 405 nm was then measured with a microplate reader. For each well, TRAP activity was measured by presuming the absorbance in the case of culture without the addition of the test compound and with the addition of only KS483 and mouse bone marrow cells in the presence of 1,25(OH)2VD3 to 100% TRAP activity and the absorbance without the addition of the test compound and the mouse bone marrow cells to 0% TRAP activity. […]

[2] = test system: bone metastasis of A375 human melanoma cells; experiment: Nude mouse bone metastasis model using human melanoma cells (A375); type: in vivo, nude mice; conditions: oral 40 mg/kg/day (20 mg twice a day), 28 days, p<0.01 vs. vehicle control, FIG. 3
Experimental: From the next day of the transplantation, for 28 days twice a day, the test compound was orally administered to the treatment group at 40 mg/kg/day, and the medium was orally administered to the control group. On 21 and 28 days after the transplantation, the mice were radiographed. For the images thus obtained, the bone resorption pore area in femora and fibiae attributable to bone metastasis of melanoma in each individual were calculated with an image analysis software (Image Gauge, FUJI FILM) to determine the average value for each group. The drug efficacy was evaluated by comparing the area of the test compound administered group with the area of the control group.

## COc1cc(Oc2ccnc3cc(OC)c(OC)cc23)ccc1NC(=O)NC(C)c1nccs1 (centres unmarked) [Example 74, N-{4-[(6,7-Dimethoxy-4-quinolyl)oxy]-2-methoxyphenyl}-N′-[1-(1,3-thiazol-2-yl)ethyl]urea]
[1]
  inhibition of osteoclast differentiation (TRAP activity): concentration-dependent inhibition
[2]
  inhibition of expansion of bone resorption area involved in bone metastasis of melanoma: inhibiting the expansion of bone resorption area

Reference: patent US7598258B2, “Quinoline derivatives and quinazoline derivatives inhibiting autophosphorylation of macrophage colony stimulating factor receptor” (Kirin Beer Kabushiki Kaisha, priority 2002, dated 2009)
